These results are taken from patent US10206394B2, “Herbicidal compounds” (Syngenta Participations AG, priority 2014, dated 2019).

Where two headings read alike, the source gives them in different places.

Test in all cases: Glasshouse assay for herbicidal activity (pre- and post-emergence), percentage phytotoxicity
Common to all, as to type: in vivo

One experiment deals with Avena fatua (AVEFA). Particulars: Avena fatua, 250 g/ha, visual assessment (100%=total damage, 0%=no damage). The essentials:
(§1)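 Percent injury was estimated by eye on a scale where 0% means no damage and 100% complete damage. Ratings came 15 DAA post-emergence and 20 DAA pre-emergence, with plants held under 16 h light and 65% humidity at 24/18 °C or 20/16 °C day/night.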

In experiment [1] the test system is Alopecurus myosuroides (ALOMY). Particulars: Alopecurus myosuroides, 250 g/ha, visual assessment (100%=total damage, 0%=no damage). In outline:
as §1

A further experiment deals with Lolium perenne (LOLPE). Particulars: Lolium perenne, 250 g/ha, visual assessment (100%=total damage, 0%=no damage). The essentials:
as §1

The test system of experiment [2] is Echinochloa crus-galli (ECHCG). Particulars: Echinochloa crus-galli, 250 g/ha, visual assessment (100%=total damage, 0%=no damage). In outline: as §1
[3] abbreviates: post-emergence, 360 h, post-emergence, 15 DAA, read-out: Post-emergence herbicidal activity (percentage phytotoxicity) AVEFA POST.
[4] abbreviates: pre-emergence, 480 h, pre-emergence, 20 DAA, read-out: Pre-emergence herbicidal activity (percentage phytotoxicity) AVEFA PRE.
The mark [5] stands for this setting: post-emergence, 360 h, post-emergence, 15 DAA, read-out: Post-emergence herbicidal activity (percentage phytotoxicity) ALOMY POST.
Setting [6] is: pre-emergence, 480 h, pre-emergence, 20 DAA, read-out: Pre-emergence herbicidal activity (percentage phytotoxicity) ALOMY PRE.
[7] abbreviates: post-emergence, 360 h, post-emergence, 15 DAA, read-out: Post-emergence herbicidal activity (percentage phytotoxicity) LOLPE POST.
Where [8] appears, read: pre-emergence, 480 h, pre-emergence, 20 DAA, read-out: Pre-emergence herbicidal activity (percentage phytotoxicity) LOLPE PRE.
Where [9] appears, read: post-emergence, 360 h, post-emergence, 15 DAA, read-out: Post-emergence herbicidal activity (percentage phytotoxicity) ECHCG POST.
Where [10] appears, read: pre-emergence, 480 h, pre-emergence, 20 DAA, read-out: Pre-emergence herbicidal activity (percentage phytotoxicity) ECHCG PRE.

For the molecule `Cc1cc(C)c(C2C(=O)CC(CC(=O)NC3(C)CCC3)C2=O)c(C)c1` (stereo not shown) [Compound B32], the pest or weed control at 250 g/ha came out at 40% in the experiment with Avena fatua (AVEFA) (setting [3]); 0% with Avena fatua (AVEFA) (setting [4]); 70% in experiment [1] (setting [5]); 90% in experiment [1] (setting [6]); 50% in the experiment with Lolium perenne (LOLPE) (setting [7]); 90% in the experiment with Lolium perenne (LOLPE) (setting [8]). In addition, the pest or weed control at 250 g/ha in experiment [2] (setting [9]) and in experiment [2] (setting [10]) was 80% in each case.

Take `Cc1cc(-c2ncc(F)cc2F)cc(C)c1C1C(=O)CC(CC(=O)NCc2cccc(Cl)c2)C1=O` (stereo not shown) [Compound B33]: the pest or weed control at 250 g/ha with Avena fatua (AVEFA) (setting [3]) is 100%; in the experiment on Avena fatua (AVEFA) (setting [4]), 100%; in experiment [1] (setting [5]), 90%; in experiment [1] (setting [6]), 100%; in the experiment with Lolium perenne (LOLPE) (setting [7]), 90%; in the experiment with Lolium perenne (LOLPE) (setting [8]) it was 100%. In addition, the pest or weed control at 250 g/ha in experiment [2] (setting [9]) and in experiment [2] (setting [10]) was 100% each time.

Regarding `C#Cc1ccc(CNC(=O)CC2CC(=O)C(c3c(C)cc(C)cc3C)C2=O)cc1` (stereo not shown) [Compound B34], the pest or weed control at 250 g/ha came to 90% in the experiment with Avena fatua (AVEFA) (setting [3]); 80% in the experiment on Avena fatua (AVEFA) (setting [4]); 60% in experiment [1] (setting [5]); 70% in experiment [1] (setting [6]); 80% in the experiment with Lolium perenne (LOLPE) (setting [7]); 90% in the experiment with Lolium perenne (LOLPE) (setting [8]). For the same molecule, the pest or weed control at 250 g/ha in experiment [2] (setting [9]) and in experiment [2] (setting [10]) was 100% in each case.

With `CC#CC(C)(C)NC(=O)CC1CC(=O)C(c2c(C)cc(C)cc2C)C1=O` (stereo not shown) [Compound B35], the pest or weed control at 250 g/ha is 70% in the experiment on Avena fatua (AVEFA) (setting [3]); 0% with Avena fatua (AVEFA) (setting [4]); 80% in experiment [1] (setting [5]); 90% in experiment [1] (setting [6]); 70% in the experiment on Lolium perenne (LOLPE) (setting [7]); 80% in the experiment on Lolium perenne (LOLPE) (setting [8]). Besides, the results for the pest or weed control at 250 g/ha in experiment [2] (setting [9]) and in experiment [2] (setting [10]) were 70% and 80%, respectively.

With `Cc1cc(C)c(C2C(=O)CC(CC(=O)NCC#CCCl)C2=O)c(C)c1` (stereo not shown) [Compound B36], the pest or weed control at 250 g/ha in the experiment with Avena fatua (AVEFA) (setting [3]) worked out at 40%; in the experiment on Avena fatua (AVEFA) (setting [4]), 0%; in experiment [1] (setting [5]), 30%; in experiment [1] (setting [6]), 50%; with Lolium perenne (LOLPE) (setting [7]), 50%; in the experiment with Lolium perenne (LOLPE) (setting [8]), 80%. Also, the pest or weed control at 250 g/ha in experiment [2] (setting [9]) was determined as 20%; in experiment [2] (setting [10]), 0%.

For the molecule `C#CCCNC(=O)CC1CC(=O)C(c2c(C)cc(C)cc2C)C1=O` (stereo not shown) [Compound B37], the pest or weed control at 250 g/ha was found to be 100% in the experiment on Avena fatua (AVEFA) (setting [3]); 90% in the experiment on Avena fatua (AVEFA) (setting [4]); 70% in experiment [1] (setting [5]); 70% in experiment [1] (setting [6]); 80% in the experiment on Lolium perenne (LOLPE) (setting [7]); 100% in the experiment on Lolium perenne (LOLPE) (setting [8]). The pest or weed control at 250 g/ha in experiment [2] (setting [9]) and in experiment [2] (setting [10]) was 90% in each case.

In the case of `C#CCN(C)C(=O)CC1CC(=O)C(c2c(C)cc(C)cc2C)C1=O` (stereo not shown) [Compound B38], the pest or weed control at 250 g/ha amounted to 90% in the experiment on Avena fatua (AVEFA) (setting [3]); 60% in the experiment with Avena fatua (AVEFA) (setting [4]); 70% in experiment [1] (setting [5]); 70% in experiment [1] (setting [6]); 90% in the experiment with Lolium perenne (LOLPE) (setting [7]); 100% with Lolium perenne (LOLPE) (setting [8]). The pest or weed control at 250 g/ha in experiment [2] (setting [9]) came out at 90%; in experiment [2] (setting [10]), 100%.

Turning to `Cc1cc(C)c(C2C(=O)CC(CC(=O)NC(C)(C)CCl)C2=O)c(C)c1` (stereo not shown) [Compound B39], the pest or weed control at 250 g/ha in the experiment on Avena fatua (AVEFA) (setting [3]) stood at 70%; in the experiment on Avena fatua (AVEFA) (setting [4]), 30%; in experiment [1] (setting [5]), 80%; in experiment [1] (setting [6]), 30%; with Lolium perenne (LOLPE) (setting [7]), 60%; in the experiment on Lolium perenne (LOLPE) (setting [8]), 60%. Besides, the pest or weed control at 250 g/ha in experiment [2] (setting [9]) was 50%; in experiment [2] (setting [10]), 0%.

On to `Cc1cc(C)c(C2C(=O)CC(CC(=O)NCC3CC3(Cl)Cl)C2=O)c(C)c1` (stereo not shown) [Compound B40], for which the pest or weed control at 250 g/ha in the experiment on Avena fatua (AVEFA) (setting [3]) was 90%; with Avena fatua (AVEFA) (setting [4]), 70%; in experiment [1] (setting [5]) it was 80%; in experiment [1] (setting [6]), 90%; with Lolium perenne (LOLPE) (setting [7]) it was 80%; in the experiment with Lolium perenne (LOLPE) (setting [8]), 90%. Also, the pest or weed control at 250 g/ha in experiment [2] (setting [9]) and in experiment [2] (setting [10]) was 90% in each case.

For `Cc1cc(C)c(C2C(=O)CC(CC(=O)NC3(C)CCCC3)C2=O)c(C)c1` (stereo not shown) [Compound B41], the pest or weed control at 250 g/ha in the experiment on Avena fatua (AVEFA) (setting [3]) came out at 70%; in the experiment with Avena fatua (AVEFA) (setting [4]) it was 30%; in experiment [1] (setting [5]), 80%; in experiment [1] (setting [6]) it was 70%; with Lolium perenne (LOLPE) (setting [7]), 60%; in the experiment on Lolium perenne (LOLPE) (setting [8]), 70%. Moreover, the pest or weed control at 250 g/ha in experiment [2] (setting [9]) and in experiment [2] (setting [10]) was 60% each time.

For the molecule `Cc1cc(C)c(C2C(=O)CC(CC(=O)NC3=NOC(C)(C)C3)C2=O)c(C)c1` (stereo not shown) [Compound B42], the pest or weed control at 250 g/ha with Avena fatua (AVEFA) (setting [3]) amounted to 60%; in the experiment with Avena fatua (AVEFA) (setting [4]) it was 0%; in experiment [1] (setting [5]), 60%; in experiment [1] (setting [6]), 0%; with Lolium perenne (LOLPE) (setting [7]), 40%; with Lolium perenne (LOLPE) (setting [8]), 0%. Also, the pest or weed control at 250 g/ha in experiment [2] (setting [9]) and in experiment [2] (setting [10]) was 0% each time.

On to `Cc1cc(C)c(C2C(=O)CC(CC(=O)NC(C)(C)C#N)C2=O)c(C)c1` (stereo not shown) [Compound B43], for which the pest or weed control at 250 g/ha in the experiment on Avena fatua (AVEFA) (setting [3]) came out at 80%; in the experiment with Avena fatua (AVEFA) (setting [4]), 30%; in experiment [1] (setting [5]) it was 80%; in experiment [1] (setting [6]), 70%; with Lolium perenne (LOLPE) (setting [7]), 80%; in the experiment with Lolium perenne (LOLPE) (setting [8]) it was 60%. In addition, the pest or weed control at 250 g/ha is 60% in experiment [2] (setting [9]) and 40% in experiment [2] (setting [10]).

Regarding `C=C(C)CNC(=O)CC1CC(=O)C(c2c(C)cc(C)cc2C)C1=O` (stereo not shown) [Compound B44], the pest or weed control at 250 g/ha in the experiment with Avena fatua (AVEFA) (setting [3]) amounted to 90%; in the experiment on Avena fatua (AVEFA) (setting [4]) it was 60%; in experiment [1] (setting [5]), 90%; in experiment [1] (setting [6]), 90%; with Lolium perenne (LOLPE) (setting [7]), 90%; in the experiment with Lolium perenne (LOLPE) (setting [8]), 100%. Also, the pest or weed control at 250 g/ha in experiment [2] (setting [9]) and in experiment [2] (setting [10]) was 90% each time.

Turning to `C#CCN(CC#C)C(=O)CC1CC(=O)C(c2c(C)cc(C)cc2C)C1=O` (stereo not shown) [Compound B45], the pest or weed control at 250 g/ha in the experiment on Avena fatua (AVEFA) (setting [3]) is 80%; in the experiment with Avena fatua (AVEFA) (setting [4]) it was 10%; in experiment [1] (setting [5]), 80%; in experiment [1] (setting [6]), 70%; in the experiment on Lolium perenne (LOLPE) (setting [7]) it was 80%; with Lolium perenne (LOLPE) (setting [8]) it was 80%. For the same molecule, the pest or weed control at 250 g/ha turned out to be 80% in experiment [2] (setting [9]) and 60% in experiment [2] (setting [10]).

For `Cc1cc(C)c(C2C(=O)CC(CC(=O)NC/C=C/Cl)C2=O)c(C)c1` (stereo not shown) [Compound B46], the pest or weed control at 250 g/ha amounted to 90% in the experiment with Avena fatua (AVEFA) (setting [3]); 60% in the experiment on Avena fatua (AVEFA) (setting [4]); 90% in experiment [1] (setting [5]); 90% in experiment [1] (setting [6]); 90% in the experiment on Lolium perenne (LOLPE) (setting [7]); 100% in the experiment with Lolium perenne (LOLPE) (setting [8]). For the same molecule, the pest or weed control at 250 g/ha in experiment [2] (setting [9]) and in experiment [2] (setting [10]) was 90% in each case.

Regarding `C/C=C/CNC(=O)CC1CC(=O)C(c2c(C)cc(C)cc2C)C1=O` (stereo not shown) [Compound B47], the pest or weed control at 250 g/ha in the experiment on Avena fatua (AVEFA) (setting [3]) is 80%; with Avena fatua (AVEFA) (setting [4]) it was 60%; in experiment [1] (setting [5]), 90%; in experiment [1] (setting [6]), 90%; in the experiment on Lolium perenne (LOLPE) (setting [7]), 90%; in the experiment with Lolium perenne (LOLPE) (setting [8]), 100%. For the same molecule, the pest or weed control at 250 g/ha in experiment [2] (setting [9]) and in experiment [2] (setting [10]) was 90% each time.

Turning to `Cc1cc(-c2ncc(Cl)cc2C#N)cc(C)c1C1C(=O)CC(CC(=O)NC(C)(C)C)C1=O` (stereo not shown) [Compound B48], the pest or weed control at 250 g/ha with Avena fatua (AVEFA) (setting [3]) worked out at 80%; with Avena fatua (AVEFA) (setting [4]), 30%; in experiment [1] (setting [5]) it was 80%; in experiment [1] (setting [6]) it was 90%; in the experiment with Lolium perenne (LOLPE) (setting [7]), 90%; in the experiment with Lolium perenne (LOLPE) (setting [8]), 80%. Besides, the pest or weed control at 250 g/ha came out at 100% in experiment [2] (setting [9]) and 90% in experiment [2] (setting [10]).
